Measurements published in ChEMBL document CHEMBL5214883, “Comprehensive review for anticancer hybridized multitargeting HDAC inhibitors” (Eur J Med Chem, 2021).

Legend:
[1] = Cytotoxicity against human WM983B cells; assay type: functional, cell-based
[2] = tested on: CAPAN-1; test: Antitumor activity against human CAPAN-1 cells xenografted in mouse assessed tumor growth inhibition at 20 mg/kg, ip, bid relative to control; assay type: functional; details: read-out: TGI
[3] = target: T1, Protein deacetylase HDAC6 (Homo sapiens, UniProt Q9UBN7); test: Inhibition of HDAC6 (unknown origin)
T1 sequence (Q9UBN7 whole entry): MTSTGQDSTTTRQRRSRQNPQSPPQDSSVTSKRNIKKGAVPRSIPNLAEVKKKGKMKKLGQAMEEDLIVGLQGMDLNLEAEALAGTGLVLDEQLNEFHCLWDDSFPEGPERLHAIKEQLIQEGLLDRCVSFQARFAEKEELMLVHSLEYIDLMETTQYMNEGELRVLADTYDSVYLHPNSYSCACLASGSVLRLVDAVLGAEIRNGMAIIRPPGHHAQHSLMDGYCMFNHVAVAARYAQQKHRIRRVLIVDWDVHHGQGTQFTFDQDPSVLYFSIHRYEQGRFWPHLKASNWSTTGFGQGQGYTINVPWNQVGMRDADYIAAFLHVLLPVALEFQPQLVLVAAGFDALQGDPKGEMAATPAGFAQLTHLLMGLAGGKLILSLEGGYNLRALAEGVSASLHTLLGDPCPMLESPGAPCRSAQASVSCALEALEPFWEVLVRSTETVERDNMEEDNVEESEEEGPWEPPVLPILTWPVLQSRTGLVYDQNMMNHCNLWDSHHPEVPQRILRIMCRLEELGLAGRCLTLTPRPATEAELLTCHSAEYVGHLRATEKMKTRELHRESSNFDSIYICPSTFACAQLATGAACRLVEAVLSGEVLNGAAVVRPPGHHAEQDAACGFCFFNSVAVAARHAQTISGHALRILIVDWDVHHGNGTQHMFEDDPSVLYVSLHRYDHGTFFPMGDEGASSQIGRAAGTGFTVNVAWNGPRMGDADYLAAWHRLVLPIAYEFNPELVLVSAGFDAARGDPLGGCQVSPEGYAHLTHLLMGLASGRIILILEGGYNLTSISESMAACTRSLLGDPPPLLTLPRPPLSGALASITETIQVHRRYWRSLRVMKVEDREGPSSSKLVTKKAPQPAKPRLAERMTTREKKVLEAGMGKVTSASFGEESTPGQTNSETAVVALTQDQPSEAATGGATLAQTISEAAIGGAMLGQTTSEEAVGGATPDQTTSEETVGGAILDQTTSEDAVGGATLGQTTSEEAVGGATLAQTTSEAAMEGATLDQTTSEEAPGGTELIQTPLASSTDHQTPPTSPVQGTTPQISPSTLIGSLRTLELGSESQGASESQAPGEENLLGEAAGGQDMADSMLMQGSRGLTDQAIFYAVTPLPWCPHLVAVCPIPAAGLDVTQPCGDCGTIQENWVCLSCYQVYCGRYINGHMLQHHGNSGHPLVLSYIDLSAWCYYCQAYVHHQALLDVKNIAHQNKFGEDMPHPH

[4] = Inhibition of PDGFR (unknown origin); design: species or system Homo sapiens
[5] = Antiproliferative activity against breast cancer cell line (unknown origin)
[6] = target: Cyclin-dependent kinase 4 (Homo sapiens, UniProt P11802); test: Inhibition of Cdk4 (unknown origin)
Chain of Cyclin-dependent kinase 4 (P11802 whole entry): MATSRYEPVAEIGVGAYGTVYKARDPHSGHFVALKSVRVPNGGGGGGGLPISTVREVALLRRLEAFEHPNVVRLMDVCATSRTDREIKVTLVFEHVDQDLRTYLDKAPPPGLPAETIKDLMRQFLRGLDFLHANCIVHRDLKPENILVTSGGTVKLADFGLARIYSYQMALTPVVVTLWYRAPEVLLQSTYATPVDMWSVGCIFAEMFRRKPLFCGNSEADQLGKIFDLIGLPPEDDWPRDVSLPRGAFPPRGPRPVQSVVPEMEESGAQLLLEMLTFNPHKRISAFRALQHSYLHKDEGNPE

[7] = Antiproliferative activity against non-small cell lung cancer cell line (unknown origin)
[8] = target: Polyamine deacetylase HDAC10 (Homo sapiens, UniProt Q969S8); test: Inhibition of HDAC10 (unknown origin)
Chain of Polyamine deacetylase HDAC10 (Q969S8 whole entry): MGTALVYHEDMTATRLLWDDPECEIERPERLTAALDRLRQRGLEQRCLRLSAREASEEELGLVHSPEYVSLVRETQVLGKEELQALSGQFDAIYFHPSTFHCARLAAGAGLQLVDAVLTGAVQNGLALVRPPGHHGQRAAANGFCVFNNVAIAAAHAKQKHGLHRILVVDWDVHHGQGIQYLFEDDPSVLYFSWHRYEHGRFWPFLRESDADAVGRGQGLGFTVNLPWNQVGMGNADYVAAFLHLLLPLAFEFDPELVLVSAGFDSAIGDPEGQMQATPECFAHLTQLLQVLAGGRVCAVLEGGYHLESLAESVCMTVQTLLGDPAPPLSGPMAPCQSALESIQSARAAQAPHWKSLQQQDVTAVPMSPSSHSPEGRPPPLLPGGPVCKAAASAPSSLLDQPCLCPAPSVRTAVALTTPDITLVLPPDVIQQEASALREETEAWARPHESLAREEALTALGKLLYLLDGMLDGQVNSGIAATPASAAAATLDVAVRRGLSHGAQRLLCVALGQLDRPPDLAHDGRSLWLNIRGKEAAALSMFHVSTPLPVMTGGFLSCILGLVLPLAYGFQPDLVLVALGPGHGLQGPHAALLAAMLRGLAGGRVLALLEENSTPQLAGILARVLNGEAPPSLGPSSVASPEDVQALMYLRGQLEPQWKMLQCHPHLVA

[9] = target: T2, Histone deacetylase 1 (Homo sapiens, UniProt Q13547); test: Inhibition of HDAC1 (unknown origin)
T2 sequence (Q13547 whole entry): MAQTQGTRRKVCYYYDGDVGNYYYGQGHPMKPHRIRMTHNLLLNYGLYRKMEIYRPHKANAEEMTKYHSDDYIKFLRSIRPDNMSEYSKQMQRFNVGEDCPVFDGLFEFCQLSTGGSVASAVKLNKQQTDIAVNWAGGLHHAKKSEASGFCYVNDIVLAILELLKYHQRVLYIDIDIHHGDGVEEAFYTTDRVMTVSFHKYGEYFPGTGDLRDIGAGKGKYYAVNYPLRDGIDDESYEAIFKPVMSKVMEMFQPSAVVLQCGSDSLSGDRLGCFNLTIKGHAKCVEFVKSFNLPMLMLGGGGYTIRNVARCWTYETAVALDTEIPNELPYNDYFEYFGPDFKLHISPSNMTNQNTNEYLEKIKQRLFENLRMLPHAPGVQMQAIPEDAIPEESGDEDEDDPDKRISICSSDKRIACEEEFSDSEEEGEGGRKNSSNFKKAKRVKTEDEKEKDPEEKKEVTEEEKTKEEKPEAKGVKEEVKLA

[10] = target: Histone deacetylase 3 (Homo sapiens, UniProt O15379); test: Inhibition of HDAC3 (unknown origin)
Chain of Histone deacetylase 3 (O15379 whole entry): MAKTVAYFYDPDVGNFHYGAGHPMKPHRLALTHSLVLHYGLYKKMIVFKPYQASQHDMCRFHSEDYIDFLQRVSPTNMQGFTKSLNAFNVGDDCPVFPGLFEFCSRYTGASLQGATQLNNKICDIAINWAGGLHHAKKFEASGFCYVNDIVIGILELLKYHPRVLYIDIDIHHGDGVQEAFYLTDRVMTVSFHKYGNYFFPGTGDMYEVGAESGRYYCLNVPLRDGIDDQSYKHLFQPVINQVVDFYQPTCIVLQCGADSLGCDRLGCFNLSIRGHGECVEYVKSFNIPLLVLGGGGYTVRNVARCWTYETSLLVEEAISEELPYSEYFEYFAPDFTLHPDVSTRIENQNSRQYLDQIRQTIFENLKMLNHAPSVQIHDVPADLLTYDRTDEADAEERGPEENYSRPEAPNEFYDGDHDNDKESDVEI

[11] = target: Tubulin; test: Inhibition of tubulin polymerization (unknown origin) incubated for 15 mins in presence of GTP by fluorescence-based tubulin polymerization assay kit; assay type: protein-complex assay, Homo sapiens
[12] = target: Histone deacetylase 2 (Homo sapiens, UniProt Q92769); test: Inhibition of human HDAC2 incubated for 30 mins by SpectraMax M2 microplate reader analysis
[13] = tested on: MCF7; test: Cytotoxicity against human MCF7 cells by trypan blue staining method; assay type: functional, cell-based
[14] = tested on: L1210; test: Cytotoxicity against mouse L1210 cells by trypan blue staining method; assay type: functional; details: read-out: LC50 (the source's name)
[15] = target: T2, Histone deacetylase 1; test: Inhibition of HDAC1 (unknown origin) relative to control; details: concentration not given here
[16] = tested on: Jurkat; test: Cytotoxicity against human Jurkat cells by trypan blue staining method; assay type: functional; details: read-out: LC50 (the source's name)
[17] = tested on: HEK-293T; test: Cytotoxicity against human 293T cells by trypan blue staining method; assay type: functional; details: read-out: LC50 (the source's name)
[18] = tested on: HaCaT; test: Cytotoxicity against human HaCat cells by trypan blue staining method; assay type: functional; details: read-out: LC50 (the source's name)
[19] = target: T3, Epidermal growth factor receptor (Homo sapiens, UniProt P00533); test: Inhibition of EGFR wildtype (unknown origin) incubated for 40 mins in presence of ATP
T3 sequence (P00533 whole entry): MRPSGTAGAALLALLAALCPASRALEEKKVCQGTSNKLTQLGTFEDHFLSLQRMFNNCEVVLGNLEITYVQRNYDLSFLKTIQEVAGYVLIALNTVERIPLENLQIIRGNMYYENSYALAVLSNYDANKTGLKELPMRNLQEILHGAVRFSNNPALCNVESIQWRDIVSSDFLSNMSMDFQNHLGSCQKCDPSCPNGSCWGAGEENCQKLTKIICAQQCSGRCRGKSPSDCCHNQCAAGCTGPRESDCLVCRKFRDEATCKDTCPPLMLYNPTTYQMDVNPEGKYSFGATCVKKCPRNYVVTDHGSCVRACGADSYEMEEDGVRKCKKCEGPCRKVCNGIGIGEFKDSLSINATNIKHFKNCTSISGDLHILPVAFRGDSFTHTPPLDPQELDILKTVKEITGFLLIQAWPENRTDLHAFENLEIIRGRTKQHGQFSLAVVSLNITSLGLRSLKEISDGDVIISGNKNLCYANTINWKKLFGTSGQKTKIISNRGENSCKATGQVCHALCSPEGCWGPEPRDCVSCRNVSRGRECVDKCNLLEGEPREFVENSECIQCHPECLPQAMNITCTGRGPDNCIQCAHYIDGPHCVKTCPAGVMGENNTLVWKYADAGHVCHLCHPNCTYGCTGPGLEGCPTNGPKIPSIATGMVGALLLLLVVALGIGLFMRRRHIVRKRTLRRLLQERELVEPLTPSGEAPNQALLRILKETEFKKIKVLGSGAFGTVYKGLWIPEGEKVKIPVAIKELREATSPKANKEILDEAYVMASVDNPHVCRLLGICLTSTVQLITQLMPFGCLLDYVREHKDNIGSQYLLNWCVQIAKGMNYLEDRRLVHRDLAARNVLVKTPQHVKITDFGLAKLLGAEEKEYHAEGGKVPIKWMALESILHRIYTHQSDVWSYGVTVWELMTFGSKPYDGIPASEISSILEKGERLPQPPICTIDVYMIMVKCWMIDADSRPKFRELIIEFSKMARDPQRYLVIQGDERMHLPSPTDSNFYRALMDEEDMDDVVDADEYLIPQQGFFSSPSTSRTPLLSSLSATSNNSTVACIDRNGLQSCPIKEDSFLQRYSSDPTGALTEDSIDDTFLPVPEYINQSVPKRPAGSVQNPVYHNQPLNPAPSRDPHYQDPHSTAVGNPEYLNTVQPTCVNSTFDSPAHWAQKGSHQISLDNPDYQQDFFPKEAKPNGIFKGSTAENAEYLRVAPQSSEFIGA

[20] = tested on: Epidermal growth factor receptor (Homo sapiens), P00533 [UNDEFINED MUTATION]; test: Inhibition of EGFR T790M (unknown origin) at 1 uM incubated for 40 mins in presence of ATP relative to control
Chain of Epidermal growth factor receptor (Homo sapiens), P00533 [UNDEFINED MUTATION] (P00533 whole entry, looked up, stated change not applied): as the sequence (P00533 whole entry) above

[21] = target: T2, Histone deacetylase 1; test: Inhibition of HDAC1 in human HeLa cell nuclear extract using Bos-Lys(acetyl)-AMC as substrate preincubated for 5 mins followed by substrate addition incubated for 30 mins; assay type: cell-free
[22] = target: Epidermal growth factor receptor (Homo sapiens, UniProt P00533, T790M); test: Inhibition of EGFR T790M (unknown origin) incubated for 40 mins in presence of ATP
[23] = target: Histone deacetylase 11 (Homo sapiens, UniProt Q96DB2); test: Inhibition of HDAC11 (unknown origin)
Chain of Histone deacetylase 11 (Q96DB2 whole entry): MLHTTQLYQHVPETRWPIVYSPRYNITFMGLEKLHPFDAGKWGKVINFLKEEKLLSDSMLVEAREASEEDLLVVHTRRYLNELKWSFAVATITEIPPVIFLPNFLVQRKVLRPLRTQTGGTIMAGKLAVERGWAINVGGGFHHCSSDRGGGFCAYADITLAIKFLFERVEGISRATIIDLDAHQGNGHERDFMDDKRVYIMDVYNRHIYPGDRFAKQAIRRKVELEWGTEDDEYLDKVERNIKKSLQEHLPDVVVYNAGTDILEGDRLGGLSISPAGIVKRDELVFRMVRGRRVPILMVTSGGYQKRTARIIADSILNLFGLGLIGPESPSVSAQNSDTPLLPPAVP

[24] = target: Histone deacetylase 8 (Homo sapiens, UniProt Q9BY41); test: Inhibition of HDAC8 (unknown origin)
Chain of Histone deacetylase 8 (Q9BY41 whole entry): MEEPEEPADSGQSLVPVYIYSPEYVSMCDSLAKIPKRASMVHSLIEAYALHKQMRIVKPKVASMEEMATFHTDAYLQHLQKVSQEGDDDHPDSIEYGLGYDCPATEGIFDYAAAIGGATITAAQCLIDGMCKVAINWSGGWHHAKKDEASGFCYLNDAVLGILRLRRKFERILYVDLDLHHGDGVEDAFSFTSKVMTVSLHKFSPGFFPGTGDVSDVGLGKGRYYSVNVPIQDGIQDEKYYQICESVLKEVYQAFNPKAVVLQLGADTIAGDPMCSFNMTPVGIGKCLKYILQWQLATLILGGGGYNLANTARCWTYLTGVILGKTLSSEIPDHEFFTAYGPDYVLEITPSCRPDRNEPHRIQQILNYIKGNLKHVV

[25] = target: Receptor tyrosine-protein kinase erbB-2 (Homo sapiens, UniProt P04626); test: Inhibition of HER2 (unknown origin)
[26] = target: T3, Epidermal growth factor receptor; test: Inhibition of EGFR (unknown origin)
[27] = tested on: MCF7; test: Cytotoxicity against human MCF7 cells; assay type: functional, cell-based
[28] = tested on: RWPE-1; test: Cytotoxicity against human RWPE-1 cells; assay type: functional, cell-based
[29] = Cytotoxicity against African green monkey Vero cells; details: African green monkey (Chlorocebus sabaeus)
[30] = tested on: MDA-MB-231; test: Cytotoxicity against human MDA-MB-231 cells; assay type: functional, cell-based
[31] = tested on: PC-3; test: Cytotoxicity against human PC-3 cells; assay type: functional, cell-based

Structure (SMILES): Nc1ccccc1NC(=O)c1ccc(CCCC(=O)Nc2ccc(C3CC3N)cc2)cc1 (stereo not given)
- IC50 [1]: 200 nM

Structure (SMILES): Cc1sc2c(c1C)C(c1ccc(Cl)cc1)=N[C@@H](CC(=O)Nc1ccc(C(=O)NO)cc1)c1nnc(C)n1-2
- inhibition in vivo at 20 mg/kg [2]: 87.7%

Structure (SMILES): Cc1ccc(NCc2ccc(C(=O)Nc3ccccc3N)cc2)cc1Nc1nccc(-c2cccnc2)n1
- IC50 [3]: ≥ 32000 nM
- IC50 [4]: 2700 nM

Structure (SMILES): Cc1nc2c(F)cc(-c3nc(Nc4ccc(CNC(=O)CC(=O)NO)cc4)ncc3F)cc2n1C(C)C
- IC50 [3]: 5.9 nM
- IC50 [5]: 18.3 nM
- IC50 [6]: 1.2 nM
- IC50 [7]: 18.3 nM
- IC50 [8]: 73 nM
- IC50 [9]: 26 nM
- IC50 [10]: 56 nM

Structure (SMILES): C[C@H]1COc2c(N3CCN(C)CC3)c(F)cc3c(=O)c(C(=O)NCc4cn(CCCCCC(=O)NO)nn4)cn1c23
- IC50 [11]: 2020 nM
- IC50 [12]: 850 nM

Structure (SMILES): O=C(CCn1cc(CCn2nnc3c(Br)c(Br)c(Br)c(Br)c32)nn1)NO
- IC50 [13]: 17300 nM
- CC50 [14]: 13500 nM
- inhibition [15]: 90%
- CC50 [16]: 13500 nM
- CC50 [17]: 13500 nM
- CC50 [18]: 13500 nM

Structure (SMILES): Cn1cc(-c2ccnc(Nc3ccc(NC(=O)CCCCCCC(=O)NO)cc3)n2)c2ccccc21
- IC50 [19]: 3200 nM
- inhibition [20]: 44%
- IC50 [21]: 105 nM
- IC50 [22]: 1200 nM

Structure (SMILES): O=C(CCCCCOc1no[n+]([O-])c1S(=O)(=O)c1ccccc1)NO
- IC50 [3]: 7400 nM
- IC50 [23]: 608 nM
- IC50 [24]: 343 nM
- IC50 [10]: 532 nM

Structure (SMILES): C#Cc1cccc(Nc2ncnc3ccc(S(=O)(=O)n4ccc(/C=C/C(=O)Nc5ccccc5N)c4)cc23)c1
- IC50 [25]: 66 nM
- IC50 [9]: 41 nM
- IC50 [26]: 78 nM

Structure (SMILES): CC1(C)C(=O)N(c2ccc(C#N)c(C(F)(F)F)c2)C(=O)N1CCCCCCc1cn(CCCCCCC(=O)NO)nn1
- IC50 [27]: 14600 nM
- IC50 [28]: 12100 nM
- IC50 [29]: > 20000 nM
- IC50 [30]: > 20000 nM
- IC50 [31]: 15700 nM
